# Data taken from BindingDB's records for doi:10.1016/j.bmcl.2009.09.046 (Ligand Pharmaceuticals, 2009).
# Assay: Inhibition of ROCK1 in human THP1 cells assessed as inhibition of MCP1-induced cell migration
row,IC50,Structure (SMILES)
1,12 nM,"c1ccc2c(c1)CC(Nc1cc(Nc3ccncc3)nc(N3CCNCC3)n1)C2 [N4-(2,3-dihydro-1H-inden-2-yl)-2-(piperazin-1-yl)-N6-(pyridin-4-yl)pyrimidine-4,6-diamine]"
2,26 nM,"C[C@@H]1CN(c2nc(Nc3ccncc3)nc(NC3Cc4ccccc4C3)n2)CCN1 [(R)-N2-(2,3-dihydro-1H-inden-2-yl)-6-(3-methylpiperazin-1-yl)-N4-(pyridin-4-yl)-1,3,5-triazine-2,4-diamine]"
3,154 nM,"c1ccc2c(c1)CC(Nc1cc(N3CCNCC3)nc(Nc3ccncc3)n1)C2 [N4-(2,3-dihydro-1H-inden-2-yl)-6-(piperazin-1-yl)-N2-(pyridin-4-yl)pyrimidine-2,4-diamine]"
4,57 nM,"c1ccc2c(c1)CC(Oc1nc(Nc3ccncc3)nc(N3CCNCC3)n1)C2 [4-(2,3-dihydro-1H-inden-2-yloxy)-6-(piperazin-1-yl)-N-(pyridin-4-yl)-1,3,5-triazin-2-amine]"
